From PubChem BioAssay AID1963836 (Molecular Pharmacology Branch, DTP, NCI, 2024)

System: 857933-349-R-J2-PDC complex spheroid viability
Experiment: Anticancer human tumor 857933-349-R-J2-PDC patient-derived colon adenocarcinoma cell line growth inhibition [POLQ]
Conditions: for IC50: curve of first compound; for viability, T/C: stronger effect = lower value
Procedure, shortened: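 PDC + HUVEC + MSC complex spheroids; POLQ inhibitors ± partner drugs; top conc. at/near clinical Cmax, else 10 microM (SN-38 1 microM), half-log dilutions; 37 degrees C, 5% CO2.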

[1] = second compound 0.0316 µM, first compound 0.0316 µM
[2] = second compound 0.0316 µM, first compound 0.1 µM
[3] = second compound 0.0316 µM, first compound 0.316 µM
[4] = second compound 0.0316 µM, first compound 1 µM
[5] = second compound 0.0316 µM, first compound 3.16 µM
[6] = second compound 0.0316 µM, first compound 10 µM
[7] = second compound 0.1 µM, first compound 0.0316 µM
[8] = second compound 0.1 µM, first compound 0.1 µM
[9] = second compound 0.1 µM, first compound 0.316 µM
[10] = second compound 0.1 µM, first compound 1 µM
[11] = second compound 0.1 µM, first compound 3.16 µM
[12] = second compound 0.1 µM, first compound 10 µM
[13] = second compound 0.316 µM, first compound 0.0316 µM
[14] = second compound 0.316 µM, first compound 0.1 µM
[15] = second compound 0.316 µM, first compound 0.316 µM
[16] = second compound 0.316 µM, first compound 1 µM
[17] = second compound 0.316 µM, first compound 3.16 µM
[18] = second compound 0.316 µM, first compound 10 µM
[19] = second compound 1 µM, first compound 0.0316 µM
[20] = second compound 1 µM, first compound 0.1 µM
[21] = second compound 1 µM, first compound 0.316 µM
[22] = second compound 1 µM, first compound 1 µM
[23] = second compound 1 µM, first compound 3.16 µM
[24] = second compound 1 µM, first compound 10 µM
[25] = second compound 3.16 µM, first compound 0.0316 µM
[26] = second compound 3.16 µM, first compound 0.1 µM
[27] = second compound 3.16 µM, first compound 0.316 µM
[28] = second compound 3.16 µM, first compound 1 µM
[29] = second compound 3.16 µM, first compound 3.16 µM
[30] = second compound 3.16 µM, first compound 10 µM
[31] = second compound 10 µM, first compound 0.0316 µM
[32] = second compound 10 µM, first compound 0.1 µM
[33] = second compound 10 µM, first compound 0.316 µM
[34] = second compound 10 µM, first compound 1 µM
[35] = second compound 10 µM, first compound 3.16 µM
[36] = second compound 10 µM, first compound 10 µM
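Also: spheroids exposed to compounds for seven days before readout.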

`CC1COCCN1c1cc(C2(S(C)(=N)=O)CC2)nc(-c2ccnc3[nH]ccc23)n1` (centres undefined) + Nc1ccc(C#CCN(C(=O)Cc2ncc(C(F)(F)F)cc2C(F)(F)F)c2ccc(F)cc2)nn1 gave an IC50 (second compound 0.0316 µM) of 6.27 µM, an IC50 (second compound 0.1 µM) of 7.41 µM and an IC50 (second compound 0.316 µM) of 6.97 µM. For the same compound, the IC50 (second compound 1 µM) was 6.44 µM, the IC50 (second compound 3.16 µM) was 6.95 µM and the IC50 (second compound 10 µM) was > 10 µM. It also gave a viability, T/C [1] of 85.9%, a viability, T/C [2] of 110% and a viability, T/C [3] of 107%. It also gave a viability, T/C [4] of 81.7%, a viability, T/C [5] of 60.8% and a viability, T/C [6] of 43.2%. The viability, T/C [7] was 95.3%, the viability, T/C [8] was 104% and the viability, T/C [9] was 88.8%. For the same compound, the viability, T/C [10] was 79%, the viability, T/C [11] was 63.4% and the viability, T/C [12] was 45.3%. It also gave a viability, T/C [13] of 108%, a viability, T/C [14] of 107% and a viability, T/C [15] of 85.4%. It also gave a viability, T/C [16] of 83.2%, a viability, T/C [17] of 64.2% and a viability, T/C [18] of 43.2%. The viability, T/C [19] was 100%, the viability, T/C [20] was 102% and the viability, T/C [21] was 90.1%. The viability, T/C [22] was 74.6%, the viability, T/C [23] was 57.6% and the viability, T/C [24] was 45.4%. For the same compound, the viability, T/C [25] was 96.2%, the viability, T/C [26] was 88.1% and the viability, T/C [27] was 89.3%. The viability, T/C [28] was 84.7%, the viability, T/C [29] was 59.9% and the viability, T/C [30] was 45.4%. It also gave a viability, T/C [31] of 96.5%, a viability, T/C [32] of 91.3% and a viability, T/C [33] of 93.5%. For the same compound, the viability, T/C [34] was 71.4%, the viability, T/C [35] was 71.1% and the viability, T/C [36] was 49.9%.
In the case of `CC1COCCN1c1cc(-c2ccnn2C)c2ccnc(-c3ccn[nH]3)c2n1` (centres undefined) + Nc1ccc(C#CCN(C(=O)Cc2ncc(C(F)(F)F)cc2C(F)(F)F)c2ccc(F)cc2)nn1, the IC50 (second compound 0.0316 µM) is reported as 0.812 µM, the IC50 (second compound 0.1 µM) is reported as 0.495 µM and the IC50 (second compound 0.316 µM) is reported as 0.739 µM. It also gave an IC50 (second compound 1 µM) of 0.445 µM, an IC50 (second compound 3.16 µM) of 0.272 µM and an IC50 (second compound 10 µM) of 0.648 µM. It also gave a viability, T/C [1] of 76.4%, a viability, T/C [2] of 65.6% and a viability, T/C [3] of 62.1%. The viability, T/C [4] was 50.3%, the viability, T/C [5] was 32.5% and the viability, T/C [6] was 43.8%. For the same compound, the viability, T/C [7] was 71.5%, the viability, T/C [8] was 65.3% and the viability, T/C [9] was 53%. The viability, T/C [10] was 47.9%, the viability, T/C [11] was 30.9% and the viability, T/C [12] was 42.8%. For the same compound, the viability, T/C [13] was 81.1%, the viability, T/C [14] was 78.5% and the viability, T/C [15] was 56.2%. For the same compound, the viability, T/C [16] was 51.4%, the viability, T/C [17] was 37.3% and the viability, T/C [18] was 41.3%. For the same compound, the viability, T/C [19] was 74.9%, the viability, T/C [20] was 61.9% and the viability, T/C [21] was 51.5%. For the same compound, the viability, T/C [22] was 49%, the viability, T/C [23] was 36.9% and the viability, T/C [24] was 45.6%. For the same compound, the viability, T/C [25] was 76.4%, the viability, T/C [26] was 68.2% and the viability, T/C [27] was 47.4%. It also gave a viability, T/C [28] of 42.9%, a viability, T/C [29] of 42.8% and a viability, T/C [30] of 46.7%. For the same compound, the viability, T/C [31] was 78.2%, the viability, T/C [32] was 62.1% and the viability, T/C [33] was 54.8%. The viability, T/C [34] was 45.3%, the viability, T/C [35] was 47.2% and the viability, T/C [36] was 45.5%.
